Active and inactive are the calls of the source. The calls are words filed in the database; no cut-off is given here.
Assays:
[1] = Inhibition of N-terminal FITC-labeled MBM1 interaction to menin (unknown origin) after 1 hr by fluorescence polarization assay; design: species or system Homo sapiens
[2] = target: T1, Menin (Homo sapiens) (UniProt O00255); test: Binding affinity to menin (unknown origin) assessed as thermal stability at 50 uM by differential scanning fluorimetry (reference value: 40.46 degC)
T1 sequence (whole entry): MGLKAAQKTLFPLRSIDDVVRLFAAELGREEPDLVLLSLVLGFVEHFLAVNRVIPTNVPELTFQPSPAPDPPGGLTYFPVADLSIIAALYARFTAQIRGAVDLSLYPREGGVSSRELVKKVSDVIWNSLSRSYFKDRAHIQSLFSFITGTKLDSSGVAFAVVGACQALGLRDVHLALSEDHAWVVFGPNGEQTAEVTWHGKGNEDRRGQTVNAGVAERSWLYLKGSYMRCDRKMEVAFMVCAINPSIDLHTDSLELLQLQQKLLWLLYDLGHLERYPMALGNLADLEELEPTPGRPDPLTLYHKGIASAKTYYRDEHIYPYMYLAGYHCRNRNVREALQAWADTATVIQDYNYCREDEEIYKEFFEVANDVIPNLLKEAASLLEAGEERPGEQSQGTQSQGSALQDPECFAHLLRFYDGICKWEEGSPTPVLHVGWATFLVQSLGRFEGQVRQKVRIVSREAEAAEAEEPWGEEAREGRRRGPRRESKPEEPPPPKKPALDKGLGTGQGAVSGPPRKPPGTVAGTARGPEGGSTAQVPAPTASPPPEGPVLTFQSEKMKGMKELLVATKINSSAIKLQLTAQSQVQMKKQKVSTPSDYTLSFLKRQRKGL

[3] = target: T1, Menin (Homo sapiens); test: Binding affinity to menin (unknown origin) assessed as thermal stability at 200 uM by differential scanning fluorimetry (reference value: 40.46 degC)
[4] = target: T1, Menin (Homo sapiens); test: Binding affinity to menin (unknown origin) assessed as thermal stability at 400 uM by differential scanning fluorimetry (reference value: 40.46 degC)
[5] = target: T2, Menin (Homo sapiens, UniProt O00255); test: (§1) Binding affinity to menin (unknown origin) by isothermal titration calorimetry analysis
T2 sequence (O00255 whole entry): T1 sequence (whole entry)

[6] = target: T1, Menin (Homo sapiens); test: as §1

With NC[C@@H]1O[C@H](O[C@H]2[C@@H](O)[C@H](O[C@@H]3[C@@H](O)[C@H](N)C[C@H](N)[C@H]3O[C@H]3O[C@H](CN)[C@@H](O)[C@H](O)[C@H]3N)O[C@@H]2CO)[C@H](N)[C@@H](O)[C@@H]1O [FRAMYCETIN] the Ki [1] was 18.8 µM, the Tm [2] was 42.5 °C and the Tm [3] was 43.8 °C. It also gave a Tm [4] of 45.2 °C and a Kd [5] of 15.6 µM.

With NC[C@H]1O[C@H](O[C@H]2[C@H](O)[C@@H](O[C@H]3O[C@H](CO)[C@@H](O)[C@H](N)[C@H]3O)[C@H](N)C[C@@H]2N)[C@H](N)C[C@@H]1O [TOBRAMYCIN] the Ki [1] was 59.9 µM, the Tm [2] was 41.4 °C and the Tm [3] was 42.6 °C. The Tm [4] was 43.4 °C and the Activity [6] was “inactive”.

From ChEMBL document CHEMBL3259787, “Discovery of two aminoglycoside antibiotics as inhibitors targeting the menin-mixed lineage leukaemia interface” (Bioorg Med Chem Lett, 2014)
